Assay results as given in patent US6838580B2, “Opioid derivative” (Teikoku Seiyaku Co., Ltd., priority 2002, dated 2005).
Entries after “also recorded” stand apart in the source; their conditions may differ. Marks after values point to notes of the source that are not given here.

Experiments:
SD Male rats [1] = assay: Analgesic effect, Randoll-Seritto hind limb pressure method, intracerebroventricular administration; type: in vivo; conditions: rat, i.c.v.
Text: (§1) SD Male rats, weighing 110 to 130 g, were used. One group consisted of five rats. The analgesic effects were examined by a Randoll-Seritto method. […] The threshold was expressed in mm Hg. During the measurement, the upper limit of the pressure applied to a hind limb was 100 mm Hg in order to avoid damage of the tissues.
1) When performing intracerebroventricular administration (i.c.v.), a rat was fixed to a brain stereotactic fixing apparatus under slight ether anesthesia, the skin at a head was dissected, and an administration cannula was inserted into a place at a transverse of […] from a bregma position and a depth of 3.5 to 4.0 mm. The administration volume was 10 μl/animal. Observation of the analgesic action was performed before administration, and at 30 minutes, and 1, 2, 3, 4 and 5 hours after administration. Doses of both compounds were 0.1, 1 and 10 μg/animal. Separately, a group to which 5 mg/kg of naltrexone hydrochloride was administered subcutaneously immediately after compound of Ex.1 10 μg/animal i.c.v and a group to which 5 mg/kg of naltrexone hydrochloride was administered subcutaneously immediately after compound of Ex.4 10 μg/animal i.c.v. was made. In addition, as morphine hydrochloride at a dose of 3 μg/animal i.c.v. group was used as a positive control group and a physiological saline 10 μl/animal i.c.v. group as a control group was made, respectively.
(§2) In order to perform a significant difference test between respective administration groups and control groups, and between values at respective times before administration and after administration, a Dunnet multiple comparative test method was used. In the statistical processing for performing a significant difference test between morphine hydrochloride administration groups and control groups, Student t-test was used. For performing a significant difference test between values at respective times before administration and after administration in morphine hydrochloride administration groups, a Dunnet multiple comparative test method was used. A significant level was at 5 or lower % risk rate (two-tailed test).

δ-opioid receptor = molecular target: T1, δ-opioid receptor (Mus musculus, UniProt P32300); assay: Mouse seminiferous tract (MVD) assay, inhibition of electrically stimulated constriction; type: cell-based; conditions: agonist activity, read-out: MVD (IC50 ± S.E.)
T1 construct: using mouse seminiferous tract in place of guinea pig ileum; from tissue; host or cells: mouse seminiferous tract (vas deferens, MVD), organ bath
T1 sequence (P32300 whole entry): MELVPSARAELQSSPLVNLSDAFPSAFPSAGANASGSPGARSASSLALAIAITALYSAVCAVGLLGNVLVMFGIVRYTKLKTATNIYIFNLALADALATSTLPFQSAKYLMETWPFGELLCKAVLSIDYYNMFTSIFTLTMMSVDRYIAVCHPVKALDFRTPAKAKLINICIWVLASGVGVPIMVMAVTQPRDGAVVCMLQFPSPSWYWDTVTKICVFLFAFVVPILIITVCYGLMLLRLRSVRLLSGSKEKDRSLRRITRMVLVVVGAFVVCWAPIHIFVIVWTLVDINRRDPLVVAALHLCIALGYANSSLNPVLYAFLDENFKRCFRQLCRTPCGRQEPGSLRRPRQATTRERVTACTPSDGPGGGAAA

SD Male rats [2] = assay: Analgesic effect, Randoll-Seritto hind limb pressure method, subcutaneous administration; type: in vivo; conditions: rat, s.c.
Experimental: as §1
(§3) 2) When administered intravenously (i.v.), a volume of 2 ml/kg weight was administered to a tail vein and, when administered subcutaneously (s.c.), a volume of 2 ml/kg weight was subcutaneously administered to the back. In the case of intravenous administration, a 1 mg/kg, 3 mg/kg or 10 mg/kg compound of Ex.1 administration group, a 1 mg/kg, 3 mg/kg or 10 mg/kg compound of Ex.4 administration group, a 2 ml/kg physiological saline administration group and a 5 mg/kg morphine hydrochloride administration group were made, respectively. In the case of subcutaneous administration, a 10 mg/kg, 30 mg/kg or 100 mg/kg compound of Ex.1 administration group, a 10 mg/kg, 30 mg/kg or 100 mg/kg compound of Ex.4 administration group, a 2 ml/kg physiological saline administration group and a 5 mg/kg morphine hydrochloride administration group were made, respectively. Observation of the analgesic action was performed 15 minutes, 30 minutes, 1 hour and 2 hours after administration in the case of intravenous administration, 30 minutes, 1 hour, 2 hours and 3 hours after administration in the case of subcutaneous administration, respectively.
as §2

SD Male rats [3] = assay: Analgesic effect, Randoll-Seritto hind limb pressure method, intravenous administration; type: in vivo; conditions: rat, i.v.
Experimental: as §1, §3, §2

[4] = 10 mg/kg, before administration

Cc1cc(O)cc(C)c1C[C@H](N)C(=O)NCCCCNC(=O)[C@@H](N)Cc1c(C)cc(O)cc1C.Cl.Cl [Ex.1, 1,4-Bis-(Dmt-amino)butane.2HCl]
Threshold (mmHg) (SD Male rats [1]; 0.1 μg/animal, 0.5 hr): 47 ± 1 mmHg | Threshold (mmHg) (SD Male rats [1]; 0.1 μg/animal, 1 hr): 50 ± 2 mmHg | Threshold (mmHg) (SD Male rats [1]; 0.1 μg/animal, 2 hr): 50 ± 1 mmHg | Threshold (mmHg) (SD Male rats [1]; 0.1 μg/animal, 3 hr): 48 ± 2 mmHg | Threshold (mmHg) (SD Male rats [1]; 0.1 μg/animal, 4 hr): 48 ± 1 mmHg | Threshold (mmHg) (SD Male rats [1]; 0.1 μg/animal, 5 hr): 49 ± 1 mmHg | Threshold (mmHg) (SD Male rats [1]; 0.1 μg/animal, before administration): 47 ± 1 mmHg | Threshold (mmHg) (SD Male rats [1]; 1 μg/animal, 0.5 hr): 51 ± 3 mmHg | Threshold (mmHg) (SD Male rats [1]; 1 μg/animal, 1 hr): 54 ± 3 mmHg | Threshold (mmHg) (SD Male rats [1]; 1 μg/animal, 2 hr): 49 ± 1 mmHg | Threshold (mmHg) (SD Male rats [1]; 1 μg/animal, 3 hr): 49 ± 2 mmHg | Threshold (mmHg) (SD Male rats [1]; 1 μg/animal, 4 hr): 48 ± 2 mmHg | Threshold (mmHg) (SD Male rats [1]; 1 μg/animal, 5 hr): 47 ± 1 mmHg | Threshold (mmHg) (SD Male rats [1]; 1 μg/animal, before administration): 47 ± 2 mmHg | Change in escape reaction threshold / analgesic effect, in words (SD Male rats [1]; 10 μg/animal): significant increase in the threshold was seen in the 10 μg/administration group 30 minutes and 1 hour after administration | Threshold (mmHg) (SD Male rats [1]; 10 μg/animal + Naltrexon 5 mg/kg s.c., 0.5 hr): 49 ± 1 mmHg | Threshold (mmHg) (SD Male rats [1]; 10 μg/animal + Naltrexon 5 mg/kg s.c., 1 hr): 53 ± 3 mmHg | Threshold (mmHg) (SD Male rats [1]; 10 μg/animal + Naltrexon 5 mg/kg s.c., 2 hr): 54 ± 2 mmHg | Threshold (mmHg) (SD Male rats [1]; 10 μg/animal + Naltrexon 5 mg/kg s.c., 3 hr): 52 ± 2 mmHg | Threshold (mmHg) (SD Male rats [1]; 10 μg/animal + Naltrexon 5 mg/kg s.c., 4 hr): 49 ± 1 mmHg | Threshold (mmHg) (SD Male rats [1]; 10 μg/animal + Naltrexon 5 mg/kg s.c., 5 hr): 50 ± 1 mmHg | Threshold (mmHg) (SD Male rats [1]; 10 μg/animal + Naltrexon 5 mg/kg s.c., before administration): 47 ± 2 mmHg | Change in escape reaction threshold / analgesic effect, in words (SD Male rats [1]; 10 μg/animal followed by naltrexone 5 mg/kg s.c.): dissipated by naltrexone 5 mg/kg subcutaneous administration | Threshold (mmHg) (SD Male rats [1]; 10 μg/animal, 0.5 hr): 61 ± 8*^,$ mmHg | Threshold (mmHg) (SD Male rats [1]; 10 μg/animal, 1 hr): 61 ± 5**^,$ mmHg | Threshold (mmHg) (SD Male rats [1]; 10 μg/animal, 2 hr): 54 ± 4 mmHg | Threshold (mmHg) (SD Male rats [1]; 10 μg/animal, 3 hr): 51 ± 3 mmHg | Threshold (mmHg) (SD Male rats [1]; 10 μg/animal, 4 hr): 52 ± 2 mmHg | Threshold (mmHg) (SD Male rats [1]; 10 μg/animal, 5 hr): 52 ± 1 mmHg | Threshold (mmHg) (SD Male rats [1]; 10 μg/animal, before administration): 48 ± 2 mmHg | IC50 (δ-opioid receptor): > 10 µM | Change in escape reaction threshold / analgesic effect, in words (SD Male rats [2]; 10 mg/kg): tendency of an increase in the threshold was seen; also recorded: exhibited the significant analgesic effect as compared with control groups | Threshold (mmHg) (SD Male rats [2]; 10 mg/kg, 0.5 hr): 55 ± 5 mmHg | Threshold (mmHg) (SD Male rats [2]; 10 mg/kg, 1 hr): 62 ± 6 mmHg | Threshold (mmHg) (SD Male rats [2]; 10 mg/kg, 2 hr): 58 ± 3 mmHg | Threshold (mmHg) (SD Male rats [2]; 10 mg/kg, 3 hr): 57 ± 2 mmHg | Threshold (mmHg) (SD Male rats [2]; [4]): 47 ± 2 mmHg | Change in escape reaction threshold / analgesic effect, in words (SD Male rats [2]; 30 mg/kg): significant increase in the threshold was seen 1 hour and 2 hours after administration | Threshold (mmHg) (SD Male rats [2]; 30 mg/kg, 0.5 hr): 52 ± 4 mmHg | Threshold (mmHg) (SD Male rats [2]; 30 mg/kg, 1 hr): 65 ± 5^$$ mmHg | Threshold (mmHg) (SD Male rats [2]; 30 mg/kg, 2 hr): 68 ± 3**^,$$ mmHg | Threshold (mmHg) (SD Male rats [2]; 30 mg/kg, 3 hr): 59 ± 4 mmHg | Threshold (mmHg) (SD Male rats [2]; 30 mg/kg, before administration): 47 ± 2 mmHg | Change in escape reaction threshold / analgesic effect, in words (SD Male rats [2]; 100 mg/kg): significant increase was seen at any measuring time after administration; also recorded: approximately comparative to the effect by morphine 5 mg/kg subcutaneous administration | Threshold (mmHg) (SD Male rats [2]; 100 mg/kg, 0.5 hr): 86 ± 2**^,$$ mmHg | Threshold (mmHg) (SD Male rats [2]; 100 mg/kg, 1 hr): 77 ± 2**^,$$ mmHg | Threshold (mmHg) (SD Male rats [2]; 100 mg/kg, 2 hr): 77 ± 2**^,$$ mmHg | Threshold (mmHg) (SD Male rats [2]; 100 mg/kg, 3 hr): 70 ± 3**^,$$ mmHg | Threshold (mmHg) (SD Male rats [2]; 100 mg/kg, before administration): 47 ± 2 mmHg | Threshold (mmHg) (SD Male rats [3]; 1 mg/kg, before administration): 48 ± 2 mmHg | Threshold (mmHg) (SD Male rats [3]; 3 mg/kg, 0.25 hr): 55 ± 2 mmHg | Threshold (mmHg) (SD Male rats [3]; 3 mg/kg, 0.5 hr): 56 ± 3 mmHg | Threshold (mmHg) (SD Male rats [3]; 3 mg/kg, 1 hr): 52 ± 4 mmHg | Threshold (mmHg) (SD Male rats [3]; 3 mg/kg, 2 hr): 49 ± 2 mmHg | Threshold (mmHg) (SD Male rats [3]; 3 mg/kg, before administration): 48 ± 2 mmHg | Change in escape reaction threshold / analgesic effect, in words (SD Male rats [3]; 10 mg/kg): significant increase in the threshold was seen 15 minutes after administration; also recorded: exhibited an analgesic effect but is weaker as compared with the case of morphine 10 mg/kg administration and its duration time was shorter | Threshold (mmHg) (SD Male rats [3]; 10 mg/kg, 0.25 hr): 60 ± 2**^,$$ mmHg | Threshold (mmHg) (SD Male rats [3]; 10 mg/kg, 0.5 hr): 56 ± 3 mmHg | Threshold (mmHg) (SD Male rats [3]; 10 mg/kg, 1 hr): 54 ± 2 mmHg | Threshold (mmHg) (SD Male rats [3]; 10 mg/kg, 2 hr): 53 ± 2 mmHg | Threshold (mmHg) (SD Male rats [3]; [4]): 48 ± 2 mmHg
